Measured values as given in patent US20240043404A1 (AbbVie Inc., priority 2009, published 2024).

Tested on: RS4;11 cells
Test: RS4;11 cell viability assay (CellTiter Glo);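 further: acute lymphoblastic leukemia line RS4,11, EC50 derived from percentage of viable cells after treatment relative to untreated controls, cell killing taken as a measure of Bcl-2 inhibition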
Type: cell-based, human
Details: Homo sapiens, RS4-11, 48 h, 50,000 cells per well, 10% human serum, 48 hours; read-out: RS4; 11 EC50 Values
Method: The acute lymphoblastic leukemia (ALL) cell line RS4;11 was used as the primary human cell line to assess the cellular activity of Bcl-2 selective agents in vitro and their efficacy in vivo.
Cell cytotoxicity EC50 values were assessed using CellTiter Glo (Promega) according to the manufacturer's recommendations. The EC50 values were determined as a percentage of viable cells following treatment compared to the untreated control cells.

Row | Structure (SMILES) | EC50
1 | CC1(C)CCC(CN2CCN(c3ccc(C(=O)NS(=O)(=O)c4cnc(OCC5CCOCC5)c(C(F)(F)F)c4)c(Oc4cnc5[nH]ccc5c4)c3)CC2)=C(c2ccc(Cl)cc2)C1 [Example 297, 4-(4-{[2-(4-chlorophenyl)-4,4-dimethylcyclohex-1-en-1-yl]methyl}piperazin-1-yl)-2-(1H-pyrrolo[2,3-b]pyridin-5-yloxy)-N-{[6-(tetrahydro-2H-pyran-4-ylmethoxy)-5-(trifluoromethyl)pyridin-3-yl]sulfonyl}benzamide] | 592 nM
2 | CC1(C)CCC(CN2CCN(c3ccc(C(=O)NS(=O)(=O)c4cnc(OCCN5CCOCC5)c(C#N)c4)c(Oc4cnc5[nH]ccc5c4)c3)CC2)=C(c2ccc(Cl)cc2)C1 [Example 57, 4-(4-{[2-(4-chlorophenyl)-4,4-dimethylcyclohex-1-en-1-yl]methyl}piperazin-1-yl)-N-{[5-cyano-6-(2-morpholin-4-ylethoxy)pyridin-3-yl]sulfonyl}-2-(1H-pyrrolo[2,3-b]pyridin-5-yloxy)benzamide] | 426 nM
3 | COCCOCCS(=O)(=O)c1ccc(S(=O)(=O)NC(=O)c2ccc(N3CCN(CC4=C(c5ccc(Cl)cc5)CC(C)(C)CC4)CC3)cc2Oc2cnc3[nH]ccc3c2)cc1[N+](=O)[O-] [Example 59, 4-(4-{[2-(4-chlorophenyl)-4,4-dimethylcyclohex-1-en-1-yl]methyl}piperazin-1-yl)-N-[(4-{[2-(2-methoxyethoxy)ethyl]sulfonyl}-3-nitrophenyl)sulfonyl]-2-(1H-pyrrolo[2,3-b]pyridin-5-yloxy)benzamide] | 722 nM
4 | CC1(C)CCC(CN2CCN(c3ccc(C(=O)NS(=O)(=O)c4ccc(NC5CN(C(CF)CF)C5)c([N+](=O)[O-])c4)c(Oc4cnc5[nH]ccc5c4)c3)CC2)=C(c2ccc(Cl)cc2)C1 [Example 151, 4-(4-{[2-(4-chlorophenyl)-4,4-dimethylcyclohex-1-en-1-yl]methyl}piperazin-1-yl)-N-{[4-({1-[2-fluoro-1-(fluoromethyl)ethyl]azetidin-3-yl}amino)-3-nitrophenyl]sulfonyl}-2-(1H-pyrrolo[2,3-b]pyridin-5-yloxy)benzamide] | 33.7 nM
5 | CC1(C)CCC(CN2CCN(c3ccc(C(=O)NS(=O)(=O)c4ccc(OC[C@@H]5CC(F)(F)CN5C5COC5)c([N+](=O)[O-])c4)c(Oc4cnc5[nH]ccc5c4)c3)CC2)=C(c2ccc(Cl)cc2)C1 [Example 168, 4-(4-{[2-(4-chlorophenyl)-4,4-dimethylcyclohex-1-en-1-yl]methyl}piperazin-1-yl)-N-[(4-{[(2S)-4,4-difluoro-1-oxetan-3-ylpyrrolidin-2-yl]methoxy}-3-nitrophenyl)sulfonyl]-2-(1H-pyrrolo[2,3-b]pyridin-5-yloxy)benzamide] | 88.7 nM
6 | CC1(C)CCC(CN2CCN(c3ccc(C(=O)NS(=O)(=O)c4ccc(NCC5CN(C(CF)CF)CCO5)c([N+](=O)[O-])c4)c(Oc4cnc5[nH]ccc5c4)c3)CC2)=C(c2ccc(Cl)cc2)C1 (stereo not drawn) [Example 252, 4-(4-{[2-(4-chlorophenyl)-4,4-dimethylcyclohex-1-en-1-yl]methyl}piperazin-1-yl)-N-{[4-({[4-(1,3-difluoropropan-2-yl)morpholin-2-yl]methyl}amino)-3-nitrophenyl]sulfonyl}-2-(1H-pyrrolo[2,3-b]pyridin-5-yloxy)benzamide] | 3.47 nM
7 | CC1(C)CCC(CN2CCN(c3ccc(C(=O)NS(=O)(=O)c4ccc(NCC5CCN(C6COC6)CC5)c([N+](=O)[O-])c4)c(Oc4cnc5[nH]ccc5c4)c3)CC2)=C(c2ccc(Cl)cc2)C1 [Example 163, 4-(4-{[2-(4-chlorophenyl)-4,4-dimethylcyclohex-1-en-1-yl]methyl}piperazin-1-yl)-N-[(3-nitro-4-{[(1-oxetan-3-ylpiperidin-4-yl)methyl]amino}phenyl)sulfonyl]-2-(1H-pyrrolo[2,3-b]pyridin-5-yloxy)benzamide] | 4.32 nM
8 | CC1(C)CCC(CN2CCN(c3ccc(C(=O)NS(=O)(=O)c4ccc(NC[C@H]5CC[C@@H](O)C5)c([N+](=O)[O-])c4)c(Oc4cnc5[nH]ccc5c4)c3)CC2)=C(c2ccc(Cl)cc2)C1 [Example 158, 4-(4-{[2-(4-chlorophenyl)-4,4-dimethylcyclohex-1-en-1-yl]methyl}piperazin-1-yl)-N-{[4-({[(1S,3R)-3-hydroxycyclopentyl]methyl}amino)-3-nitrophenyl]sulfonyl}-2-(1H-pyrrolo[2,3-b]pyridin-5-yloxy)benzamide] | 17.9 nM
9 | CC1(C)CCC(CN2CCN(c3ccc(C(=O)NS(=O)(=O)c4ccc(N[C@@H]5CC[C@H](N6CCOCC6)C5)c([N+](=O)[O-])c4)c(Oc4cnc5[nH]ccc5c4)c3)CC2)=C(c2ccc(Cl)cc2)C1 [Example 112, 4-(4-{[2-(4-chlorophenyl)-4,4-dimethylcyclohex-1-en-1-yl]methyl}piperazin-1-yl)-N-[(4-{[(1R,3S)-3-morpholin-4-ylcyclopentyl]amino}-3-nitrophenyl)sulfonyl]-2-(1H-pyrrolo[2,3-b]pyridin-5-yloxy)benzamide] | 20.6 nM
10 | CC1(C)CCC(CN2CCN(c3ccc(C(=O)NS(=O)(=O)c4ccc(N[C@H]5CCN(CC(F)F)C5)c([N+](=O)[O-])c4)c(Oc4cnc5[nH]ccc5c4)c3)CC2)=C(c2ccc(Cl)cc2)C1 [Example 182, 4-(4-{[2-(4-chlorophenyl)-4,4-dimethylcyclohex-1-en-1-yl]methyl}piperazin-1-yl)-N-[(4-{[(3S)-1-(2,2-difluoroethyl)pyrrolidin-3-yl]amino}-3-nitrophenyl)sulfonyl]-2-(1H-pyrrolo[2,3-b]pyridin-5-yloxy)benzamide] | 123 nM
11 | CC1(C)CCC(CN2CCN(c3ccc(C(=O)NS(=O)(=O)c4ccc(N[C@@H]5CCN(C6CCOC(C)(C)C6)C5)c([N+](=O)[O-])c4)c(Oc4cnc5[nH]ccc5c4)c3)CC2)=C(c2ccc(Cl)cc2)C1 (stereo partly drawn) [Example 131, 4-(4-{[2-(4-chlorophenyl)-4,4-dimethylcyclohex-1-en-1-yl]methyl}piperazin-1-yl)-N-[(4-{[(3R)-1-(2,2-dimethyltetrahydro-2H-pyran-4-yl)pyrrolidin-3-yl]amino}-3-nitrophenyl)sulfonyl]-2-(1H-pyrrolo[2,3-b]pyridin-5-yloxy)benzamide] | 12.7 nM
12 | CC1(C)CCC(CN2CCN(c3ccc(C(=O)NS(=O)(=O)c4cnc(OCC5CCC(N(C6CC6)C6COC6)CC5)c(Cl)c4)c(Oc4cnc5[nH]ccc5c4)c3)CC2)=C(c2ccc(Cl)cc2)C1 (stereo not drawn) [Example 329, N-{[5-chloro-6-({4-[cyclopropyl(oxetan-3-yl)amino]cyclohexyl}methoxy)pyridin-3-yl]sulfonyl}-4-(4-{[2-(4-chlorophenyl)-4,4-dimethylcyclohex-1-en-1-yl]methyl}piperazin-1-yl)-2-(1H-pyrrolo[2,3-b]pyridin-5-yloxy)benzamide] | 424 nM
13 | CC1(C)CCC(CN2CCN(c3ccc(C(=O)NS(=O)(=O)c4ccc(OCC#CCN5CCOCC5)c([N+](=O)[O-])c4)c(Oc4cnc5[nH]ccc5c4)c3)CC2)=C(c2ccc(Cl)cc2)C1 [Example 68, 4-(4-{[2-(4-chlorophenyl)-4,4-dimethylcyclohex-1-en-1-yl]methyl}piperazin-1-yl)-N-({4-[(4-morpholin-4-ylbut-2-ynyl)oxy]-3-nitrophenyl}sulfonyl)-2-(1H-pyrrolo[2,3-b]pyridin-5-yloxy)benzamide] | 108 nM
14 | CC1(C)CCC(CN2CCN(c3ccc(C(=O)NS(=O)(=O)c4ccc(O[C@@H]5CCN(C(CF)CF)C5)c([N+](=O)[O-])c4)c(Oc4cnc5[nH]ccc5c4)c3)CC2)=C(c2ccc(Cl)cc2)C1 [Example 235, 4-(4-{[2-(4-chlorophenyl)-4,4-dimethylcyclohex-1-en-1-yl]methyl}piperazin-1-yl)-N-[(4-{[(3R)-1-(1,3-difluoropropan-2-yl)pyrrolidin-3-yl]oxy}-3-nitrophenyl)sulfonyl]-2-(1H-pyrrolo[2,3-b]pyridin-5-yloxy)benzamide] | 32.3 nM
15 | CC1(C)CCC(CN2CCN(c3ccc(C(=O)NS(=O)(=O)c4cnc(OC[C@H]5CN(CC#N)CCO5)c(Cl)c4)c(Oc4cnc5[nH]ccc5c4)c3)CC2)=C(c2ccc(Cl)cc2)C1 [Example 246, N-[(5-chloro-6-{[(2R)-4-(cyanomethyl)morpholin-2-yl]methoxy}pyridin-3-yl)sulfonyl]-4-(4-{[2-(4-chlorophenyl)-4,4-dimethylcyclohex-1-en-1-yl]methyl}piperazin-1-yl)-2-(1H-pyrrolo[2,3-b]pyridin-5-yloxy)benzamide] | 402 nM
16 | CO[C@H]1CC[C@H](CNc2ccc(S(=O)(=O)NC(=O)c3ccc(N4CCN(CC5=C(c6ccc(Cl)cc6)CCC6(CCCC6)C5)CC4)cc3Oc3cnc4[nH]ccc4c3)cc2[N+](=O)[O-])CC1 [Example 74, Trans-4-(4-{[8-(4-chlorophenyl)spiro[4.5]dec-7-en-7-yl]methyl}piperazin-1-yl)-N-[(4-{[(4-methoxycyclohexyl)methyl]amino}-3-nitrophenyl)sulfonyl]-2-(1H-pyrrolo[2,3-b]pyridin-5-yloxy)benzamide] | 57 nM
17 | CC1(C)CCC(CN2CCN(c3ccc(C(=O)NS(=O)(=O)c4ccc(N[C@H]5CC[C@@H](N6CCOCC6)C5)c([N+](=O)[O-])c4)c(Oc4cnc5[nH]ccc5c4)c3)CC2)=C(c2ccc(Cl)cc2)C1 [Example 111, 4-(4-{[2-(4-chlorophenyl)-4,4-dimethylcyclohex-1-en-1-yl]methyl}piperazin-1-yl)-N-[(4-{[(1S,3R)-3-morpholin-4-ylcyclopentyl]amino)-3-nitrophenyl)sulfonyl]-2-(1H-pyrrolo[2,3-b]pyridin-5-yloxy)benzamide] | 14.5 nM
18 | CC1(C)CCC(CN2CCN(c3ccc(C(=O)NS(=O)(=O)c4cnc(OCC5(F)CCN(C(CF)CF)CC5)c(Cl)c4)c(Oc4cnc5[nH]ccc5c4)c3)CC2)=C(c2ccc(Cl)cc2)C1 [Example 282, N-[(5-chloro-6-{[1-(1,3-difluoropropan-2-yl)-4-fluoropiperidin-4-yl]methoxy}pyridin-3-yl)sulfonyl]-4-(4-{[2-(4-chlorophenyl)-4,4-dimethylcyclohex-1-en-1-yl]methyl}piperazin-1-yl)-2-(1H-pyrrolo[2,3-b]pyridin-5-yloxy)benzamide] | 32.2 nM
